For three compounds, IC50 results are on record in patent US8859535B2, “Hydroxy substituted isoquinolinone derivatives” (Novartis AG, priority 2011, dated 2014).

Holding throughout (assay type): binding
Test [1] concerns the target T1, human MDM2 protein (amino acids 2-188) (Homo sapiens, UniProt Q00987).
T1 construct: human MDM2 protein (amino acids 2-188); made in house
Put plainly: p53-MDM2 TR-FRET assay, modified (p53-MDM2 Assay 2). Conditions: 0.1 nM MDM2, 0.1 nM Europium labeled streptavidin; read-out: IC50 (nM) of p53-Hdm2 inhibition (TR-FRET) Assay 2. Summed up: (§1)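 Peptide displacement read as 665/620 nm TR-FRET ratio (excitation 340 nm) after 15 min room temperature with 10 nM Cy5-p53 aa18-26, following 15 min preincubation of Eu-streptavidin (0.625 nM) with biotinylated MDM4 aa 2-185 (2.5 nM) or MDM2 aa 2-188 (1.25 nM); IC50 curve-fitted. MDM2 Assay 2: MDM2 and Eu-streptavidin each 0.1 nM.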
In general terms: In TR-FRET formats the signal depends on donor and acceptor labels being close together.

Test [2] deals with T2, human MDM4 protein (amino acids 2-185) (Homo sapiens, UniProt O15151).
T2 construct: human MDM4 protein (amino acids 2-185); made in house
T2 sequence (O15151 2-185): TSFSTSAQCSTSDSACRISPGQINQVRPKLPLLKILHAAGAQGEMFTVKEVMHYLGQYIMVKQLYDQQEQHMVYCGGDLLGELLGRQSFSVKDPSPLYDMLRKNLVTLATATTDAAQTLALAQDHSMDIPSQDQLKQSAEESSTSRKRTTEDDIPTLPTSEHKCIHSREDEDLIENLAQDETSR
Put plainly: p53-MDM4 TR-FRET assay (p53-MDM4 Assay 1). Conditions: 2.5 nM MDM4-biotinylated, 10 nM Cy5-p53 peptide; read-out: IC50 (μM) of p53-Hdm4 inhibition (TR-FRET) Assay 1. Summed up:
as §1

Test [3] deals with T1, human MDM2 protein (amino acids 2-188). Briefly: p53-MDM2 TR-FRET assay (p53-MDM2 Assay 1). Conditions: 1.25 nM MDM2-biotinylated, 10 nM Cy5-p53 peptide; read-out: IC50 (μM) of p53-Hdm2 inhibition (TR-FRET) Assay 1. Summed up:
as §1

Each structure is given as a SMILES string.

T1 sequence (Q00987 2-188): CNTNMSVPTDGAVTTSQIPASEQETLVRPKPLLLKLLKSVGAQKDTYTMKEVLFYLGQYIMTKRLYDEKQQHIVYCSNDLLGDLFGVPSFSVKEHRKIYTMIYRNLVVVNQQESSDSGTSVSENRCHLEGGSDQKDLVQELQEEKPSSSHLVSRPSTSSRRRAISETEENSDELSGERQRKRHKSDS

One may read the IC50 as the concentration needed to halve the response being measured. Consider `COc1cc2c(cc1OC(C)C)[C@H](c1ccc(Cl)cc1)N(c1ccc(C(C)(O)C3CC4CCCC(C3)O4)cc1)C(=O)C2` (stereo partly drawn) [Example 161, (S)-1-(4-Chloro-phenyl)-2-{4-[1-hydroxy-1-(9-oxa-bicyclo[3.3.1]non-3-yl)-ethyl]-phenyl}-7-isopropoxy-6-methoxy-1,4-dihydro-2H-isoquinolin-3-one], for which the IC50 in test [1] was determined as 3.72 nM; in test [2], 4.52 µM; in test [3], 0.0041 µM.
On to `COc1cc2c(cc1OC(C)C)[C@H](c1ccc(Cl)cc1)N(c1ccc([C@@](C)(O)C3CCS(=O)(=O)CC3)cc1)C(=O)C2` [Example 168, (S)-1-(4-Chloro-phenyl)-2-{4-[(S)-1-(1,1-dioxo-hexahydro-1-thiopyran-4-yl)-1-hydroxy-ethyl]-phenyl}-7-isopropoxy-6-methoxy-1,4-dihydro-2H-isoquinolin-3-one], for which the IC50 in test [1] was 1.25 nM; in test [2], 1.96 µM; in test [3] it was 0.0015 µM.
In the same order, the values of `COc1cc2c(cc1OC(C)C)[C@H](c1ccc(Cl)cc1)N(c1ccc([C@@](C)(O)C3CC4CCC(C3)S4(=O)=O)cc1)C(=O)C2` (stereo partly drawn) [Example 174, (S)-1-(4-Chloro-phenyl)-2-{4-[(S)-1-(8,8-dioxo-8-thia-bicyclo[3.2.1]oct-3-yl)-1-hydroxy-ethyl]-phenyl}-7-isopropoxy-6-methoxy-1,4-dihydro-2H-isoquinolin-3-one] are 0.961 nM, 1.17 µM and 0.0009 µM.
